This note sets out measurements from patent US9353104B2, “Substituted pyridizinone derivatives as PDE10 inhibitors” (priority 2013, dated 2016).

For the experiment, the target named is human PDE10A2 (Homo sapiens (Human), UniProt Q9Y233). As to the kind of experiment: PDE10 fluorescence polarization (IMAP FP) inhibition assay. In kind it is biochemical. To be noted: human PDE10A2 lysate, FAM-labeled cAMP 50 nM, room temperature; read-out: PDE10A Ki. Here is the method: The activity of the compounds in accordance with the present invention as PDE10 inhibitors may be readily determined without undue experimentation using a fluorescence polarization (FP) methodology that is well known in the art (Huang, W., et al., J. Biomol Screen, 2002, 7: 215). […] In a typical experiment the PDE10 inhibitory activity of the compounds of the present invention was determined in accordance with the following experimental method. PDE10A2 was amplified from human fetal brain cDNA (Clontech, Mountain View, Calif.) using a forward primer corresponding to nucleotides 56-77 of human PDE10A2 (Accession No. AF127480, Genbank Identifier 4894716), containing a Kozak consensus sequence, and a reverse primer corresponding to nucleotides 2406-2413 of human PDE10A2 (Accession No. AF127480, Genbank Identifier 4894716). Amplification with Easy-A polymerase (Stratagene, La Jolla, Calif.) was 95° C. for 2 minutes followed by thirty three cycles of 95° C. for 40 seconds, 55° C. for 30 seconds, and 72° C. for 2 minutes 48 seconds. Final extension was 72° C. for 7 minutes. The PCR product was TA cloned into pcDNA3.2-TOPO (Invitrogen, Carlsbad, Calif.) according to standard protocol. AD293 cells with 70-80% confluency were transiently transfected with human PDE10A2/pcDNA3.2-TOPO using Lipofectamine 2000 according to manufacturer specifications (Invitrogen, Carlsbad, Calif.). Cells were harvested 48 hours post-transfection and lysed by sonication (setting 3, 10×5 sec pulses) in a buffer containing 20 mM HEPES, 1 mM EDTA and protease inhibitor cocktail (Roche). Lysate was collected by centrifugation at 75,000×g for 20 minutes. Supernatant containing the cytoplasmic fraction was used for evaluation of PDE10A2 activity. The fluorescence polarization assay for cyclic nucleotide phosphodiesterases was performed using an IMAP® FP kit supplied by Molecular Devices, Sunnyvale, Calif. (product #R8139). IMAP® technology has been applied previously to phosphodiesterase assays (Huang, W., et al., J. Biomol Screen, 2002, 7: 215). Assays were performed at room temperature in 384-well microtiter plates with an incubation volume of 20.2 μL. Solutions of test compounds were prepared in DMSO and serially diluted with DMSO to yield 8 μL of each of 10 solutions differing by 3-fold in concentration, at 32 serial dilutions per plate. 100% inhibition is determined using a known PDE10 inhibitor, which can be any compound that is present at 5,000 times its Ki value in the assay described as follows, such as papaverine (see Siuciak, et al. Neuropharmacology (2006) 51:386-396; Becker, et al. Behav Brain Res (2008) 186(2):155-60; Threlfell, et al., J Pharmacol Exp Ther (2009) 328(3):785-795), 2-{4-[pyridin-4-yl-1-(2,2,2-trifluoroethyl)-1H-pyrazol-3-yl]phenoxymethyl}quinoline succinic acid or 2-[4-(1-methyl-4-pyridin-4-yl-1H-pyrazol-3-yl)-phenoxymethyl]quinoline succinic acid (see Schmidt, et al. J Pharmacol Exp Ther (2008) 325:681-690; Threlfell, et al., J Pharmacol Exp Ther (2009) 328(3): 785-795). 0% of inhibition is determined by using DMSO (1% final concentrations).
Sequence of human PDE10A2 (Q9Y233 267-1055): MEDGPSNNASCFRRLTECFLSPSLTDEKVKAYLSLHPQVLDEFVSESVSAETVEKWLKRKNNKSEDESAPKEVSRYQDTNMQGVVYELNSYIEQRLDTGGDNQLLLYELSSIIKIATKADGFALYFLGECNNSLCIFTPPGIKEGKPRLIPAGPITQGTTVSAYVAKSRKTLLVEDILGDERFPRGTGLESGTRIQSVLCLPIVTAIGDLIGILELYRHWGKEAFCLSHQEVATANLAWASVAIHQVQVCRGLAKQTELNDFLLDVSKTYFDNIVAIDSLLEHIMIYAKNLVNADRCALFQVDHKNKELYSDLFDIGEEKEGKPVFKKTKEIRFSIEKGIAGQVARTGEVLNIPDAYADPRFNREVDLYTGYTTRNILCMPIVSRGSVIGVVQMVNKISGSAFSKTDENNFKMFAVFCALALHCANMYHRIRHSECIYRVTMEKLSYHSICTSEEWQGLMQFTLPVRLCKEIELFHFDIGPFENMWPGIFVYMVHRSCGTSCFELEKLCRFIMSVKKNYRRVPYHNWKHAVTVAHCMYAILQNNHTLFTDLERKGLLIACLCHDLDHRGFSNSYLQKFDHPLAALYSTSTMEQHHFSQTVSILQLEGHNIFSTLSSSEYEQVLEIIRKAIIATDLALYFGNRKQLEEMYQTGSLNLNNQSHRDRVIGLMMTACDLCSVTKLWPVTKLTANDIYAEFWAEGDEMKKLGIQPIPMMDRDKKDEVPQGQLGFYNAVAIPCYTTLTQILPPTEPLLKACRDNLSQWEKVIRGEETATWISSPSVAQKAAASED
A Labcyte Echo 555 (Labcyte, Sunnyvale, Calif.) is used to dispense 200 nL from each well of the titration plate to the 384 well assay plate. A solution of enzyme (1/1600 dilution from aliquots; sufficient to produce 20% substrate conversion) and a separate solution of FAM-labeled cAMP PDE from Molecular Devices (product #R7506), at a final concentration of 50 nM are made in the assay buffer (10 mM Tris HCl, pH 7.2, 10 mM MgCl2, 0.05% NaN3 0.01% Tween-20, and 1 mM DTT). The enzyme and the substrate are then added to the assay plates in two consecutive additions of 10 μL, and then shaken to mix. The reaction is allowed to proceed at room temperature for 30 minutes. A binding solution is then made from the kit components, comprised of 80% Solution A, 20% Solution B and binding reagent at a volume of 1/600 the total binding solution.
(In fluorescence polarisation assays a small probe gives low polarisation when free and higher when bound to something large.)
With “6-(((1S,2S)-2-(5- methoxypyridin-2- yl)cyclopropyl)methoxy)- 2-methyl-4-(((2-methyl- thiazol-4- yl)methyl)amino-)- pyridazin-3(2H)-one [Example 49]”, the inhibition constant Ki (usually a dissociation constant, usually derived from enzyme kinetics or from competition with a known ligand) turned out to be 16.6 nM.

With `Cc1ccc([C@H]2C[C@@H]2COc2cc(NCc3nnc(C)s3)c(=O)n(C)n2)nc1` [Example 1, 2-methyl-4-((5-methyl-1,3,4-thiadiazol-2-yl)methylamino)-6-(((1S,2S)-2-(5-methylpyridin-2-yl)cyclopropyl)methoxy)pyridazin-3(2H)-one], the inhibition constant Ki stood at 0.013 nM. As to `Cc1ncc(CNc2cc(OC[C@H]3C[C@@H]3c3ccn(C)n3)nn(C)c2=O)s1` [Example 2, 2-methyl-6-(((1S,2S)-2-(1-methyl-1H-pyrazol-3-yl)cyclopropyl)methoxy)-4-((2-methylthiazol-5-yl)methylamino)pyridazin-3(2H)-one], the Ki worked out at 0.089 nM. For the compound `COc1ccc([C@H]2C[C@@H]2COc2cc(NCc3nnc(C)s3)c(=O)n(C)n2)nc1` [Example 4, 6-(((1S,2S)-2-(5-methoxy-pyridin-2-yl)cyclopropyl-)-methoxy)-2-methyl-4-((5-methyl-1,3,4-thiadiazol-2-yl)methylamino)pyridazin-3(2H)-one], the Ki came out at 0.015 nM.

Regarding `Cc1nnc(CNc2cc(OC[C@H]3C[C@@H]3c3ccc(OC(F)F)cn3)nn(C)c2=O)s1` [Example 5, 6-(((1S,2S)-2-(5-(difluoromethoxy)pyridin-2-yl)cyclopropyl)methoxy-)-2-methyl-4-((5-methyl-1,3,4-thiadiazol-2-yl)-methylamino)pyridazin-3(2H)-one], the inhibitory constant (Ki) amounted to 0.157 nM. For `Cc1nnc(CNc2cc(OC[C@H]3C[C@@H]3c3ccc(F)cn3)nn(C)c2=O)s1` [Example 7, 6-(((1S,2S)-2-(5-fluoropyridin-2-yl)cyclo-propyl)methoxy)-2-methyl-4-((5-methyl-1,3,4-thiadiazol-2-yl)methyl-amino)pyridazin-3(2H)one], the inhibitory constant (Ki) is 0.535 nM. Take `COc1ccc(CNc2cc(OC[C@H]3C[C@@H]3c3ccc(C)cn3)nn(C)c2=O)cc1` [Example 8, 4-(4-methoxybenzylamino)-2-methyl-6-(((1S,2S)-2-(5-methylpyridin-2-yl)cyclopropyl)methoxy)-pyridazin-3(2H)-one]: the inhibitory constant (Ki) was 0.074 nM. As to `Cc1ccc(CNc2cc(OC[C@H]3C[C@@H]3c3ccc(C)cn3)nn(C)c2=O)nc1` [Example 9, 2-methyl-6-(((1S,2S)-2-(5-methylpyridin-2-yl)cyclopropyl)methoxy)-4-((5-methylpyridin-2-yl)methylamino)pyridazin-3(2H)-one], the Ki was found to be 0.051 nM. In the case of `Cc1ccc([C@H]2C[C@@H]2COc2cc(NCc3cnn(C)c3)c(=O)n(C)n2)nc1` [Example 10, 2-methyl-4-((1-methyl-1H-pyrazol-4-yl)methylamino)-6-(((1S,2S)-2-(5-methylpyridin-2-yl)cyclopropyl)methoxy)-pyridazin-3(2H)-one], the inhibition constant Ki worked out at 0.072 nM. Consider `Cc1ccc([C@H]2C[C@@H]2COc2cc(NCc3ccc(C)nc3)c(=O)n(C)n2)nc1` [Example 11, 2-methyl-6-(((1S,2S)-2-(5-methylpyridin-2-yl)cyclopropyl)methoxy)-4-((6-methylpyridin-3-yl)methylamino)pyridazin-3(2H)-one], for which the Ki worked out at 0.121 nM. On to `Cc1ccc([C@H]2C[C@@H]2COc2cc(NCc3nc(C)cs3)c(=O)n(C)n2)nc1` [Example 12, 2-methyl-6-(((1S,2S)-2-(5-methylpyridin-2-yl)cyclo-propyl)methoxy)-4-((4-methylthiazol-2-yl)methyl-amino)pyridazin-3(2H)one], for which the inhibition constant Ki is 9.89 nM. As to `Cc1ccc([C@H]2C[C@@H]2COc2cc(NCc3cnc(C)s3)c(=O)n(C)n2)nc1` [Example 13, 2-methyl-6-(((1S,2S)-2-(5-methylpyridin-2-yl)cyclopropyl)methoxy)-4-((2-methylthiazol-5-yl)methylamino)pyridazin-3(2H)-one], the inhibitory constant (Ki) amounted to 0.011 nM. The value for `Cc1ccc([C@H]2C[C@@H]2COc2cc(NCc3cc(C)nn3C)c(=O)n(C)n2)nc1` [Example 14, 4-((1,3-dimethyl-1H-pyrazol-5-yl)methylamino-)-2-methyl-6-(((1S,2S)-2-(5-methylpyridin-2-yl)cyclopropyl)methoxy)-pyridazin-3(2H)-one] was 0.003 nM; that for `COc1ccc(CNc2cc(OC[C@H]3C[C@@H]3c3ccc(F)cn3)nn(C)c2=O)cc1` [Example 15, 6-(((1S,2S)-2-(5-fluoro-pyridin-2-yl)-cyclopropyl-)-methoxy)-4-(4-methoxy-benzylamino)-2-methyl-pyridazin-3(2H)-one] was 1.29 nM. As for `Cc1ccc(CNc2cc(OC[C@H]3C[C@@H]3c3ccc(F)cn3)nn(C)c2=O)nc1` [Example 16, 6-(((1S,2S)-2-(5-fluoropyridin-2-yl)cyclopropyl)methoxy)-2-methyl-4-((5-methylpyridin-2-yl)methylamino)pyridazin-3(2H)-one], the inhibition constant (Ki) is 0.782 nM.

Turning to `COc1ccc(CNc2cc(OC[C@H]3C[C@@H]3c3ccn(C)n3)nn(C)c2=O)cc1` [Example 17, 4-(4-methoxybenzylamino)-2-methyl-6-(((1S,2S)-2-(1-methyl-1H-pyrazol-3-yl)cyclopropyl)methoxy)-pyridazin-3(2H)-one], the Ki amounted to 0.502 nM. Take `Cc1cc(CNc2cc(OC[C@H]3C[C@@H]3c3ccc(F)cn3)nn(C)c2=O)n(C)n1` [Example 18]: the inhibition constant (Ki) was found to be 0.099 nM. With `Cn1cc(CNc2cc(OC[C@H]3C[C@@H]3c3ccc(F)cn3)nn(C)c2=O)cn1` [Example 19, 6-(((1S,2S)-2-(5-fluoropyridin-2-yl)cyclo-propyl)methoxy)-2-methyl-4-((1-methyl-1H-pyrazol-4-yl)methylamino-)-pyridazin-3(2H)-one] the figure was 1.26 nM; with `Cc1ccc(CNc2cc(OC[C@H]3C[C@@H]3c3ccn(C)n3)nn(C)c2=O)cn1` [Example 20, 2-methyl-6-(((1S,2S)-2-(1-methyl-1H-pyrazol-3-yl)cyclopropyl)methoxy)-4-((6-methylpyridin-3-yl)methylamino)pyridazin-3(2H)-one], 0.806 nM; with `Cc1cc(CNc2cc(OC[C@H]3C[C@@H]3c3ccn(C)n3)nn(C)c2=O)n(C)n1` [Example 21, 4-((1,3-dimethyl-1H-pyrazol-5-yl)methylamino)-2-methyl-6-(((1S,2S)-2-(1-methyl-1H-pyrazol-3-yl)cyclopropyl)methoxy)-pyridazin-3(2H)-one], 0.044 nM. The value for `Cc1ncc(CNc2cc(OC[C@H]3C[C@@H]3c3ccc(F)cn3)nn(C)c2=O)s1` [Example 22, 6-(((1S,2S)-2-(5-fluoropyridin-2-yl)cyclopropyl)methoxy)-2-methyl-4-((2-methylthiazol-5-yl)methylamino)pyridazin-3(2H)-one] was 0.175 nM; that for `Cn1cc(CNc2cc(OC[C@H]3C[C@@H]3c3ccn(C)n3)nn(C)c2=O)cn1` [Example 23, 2-methyl-6-(((1S,2S)-2-(1-methyl-1H-pyrazol-3-yl)cyclopropyl)methoxy)-4-((1-methyl-1H-pyrazol-4-yl)methylamino)-pyridazin-3(2H)-one] was 0.478 nM; that for `Cc1nnc(CNc2cc(OC[C@H]3C[C@@H]3c3ccc(Cl)cn3)nn(C)c2=O)s1` [Example 25, 6-(((1S,2S)-2-(5-chloropyridin-2-yl)cyclopropyl)methoxy)-2-methyl-4-((5-methyl-1,3,4-thiadiazol-2-yl)methylamino)pyridazin-3(2H)-one] was 0.0819 nM.
